Series [1] in a line: Hygroscopicity of the crystalline form (exposure to water vapour). The conditions noted are these: solid form, exposure to water vapour during storage. Format: physicochemical.
Series [2] is described as follows: Solid-state form stability (storage, presence or absence of water). Format: physicochemical.

Entries after “also recorded” stand apart in the source; their conditions may differ.

Results on four compounds are retold here after patent US8304417B2, “Crystalline forms of 4-(6-chloro-2,3-methylenedioxyanilino)-7-[2-(4-methylpiperazin-1-yl)ethoxy]-5-tetrahydropyran-4-yloxyquinazoline” (AstraZeneca AB, priority 2004, dated 2012).

Consider `CN1CCN(CCOc2cc(OC3CCOCC3)c3c(Nc4c(Cl)ccc5c4OCO5)ncnc3c2)CC1.O=C(O)/C=C/C(=O)O.O=C(O)/C=C/C(=O)O` [AZD0530 difumarate, 4-(6-chloro-2,3-methylenedioxyanilino)-7-[2-(4-methylpiperazin-1-yl)ethoxy]-5-tetrahydropyran-4-yloxyquinazoline difumarate salt], for which the hygroscopicity result in series [1] was “substantially non-hygroscopic”. In series [2], the “stability of the physical form” value was “does not readily change form during storage if exposed to water vapour”.

`CN1CCN(CCOc2cc(OC3CCOCC3)c3c(Nc4c(Cl)ccc5c4OCO5)ncnc3c2)CC1` [anhydrous AZD0530, 4-(6-chloro-2,3-methylenedioxyanilino)-7-[2-(4-methylpiperazin-1-yl)ethoxy]-5-tetrahydropyran-4-yloxyquinazoline]: the “stability of the physical form” value in series [2] is listed as “very stable in the absence of water; also recorded: prone to convert to AZD0530 trihydrate during storage if substantially anhydrous storage conditions are not maintained”.

As for “4-(6-chloro-2,3-methylenedioxyanilino)-7-[2-(4-methylpiperazin-1-yl)ethoxy]-5-tetrahydropyran-4-yloxyquinazoline sesquifumarate salt [AZD0530 sesquifumarate tetrahydrate]”, in series [2], the “stability of the physical form” value is reported as “of reasonable stability”.

Take `CN1CCN(CCOc2cc(OC3CCOCC3)c3c(Nc4c(Cl)ccc5c4OCO5)ncnc3c2)CC1.O.O.O` [AZD0530 trihydrate, 4-(6-chloro-2,3-methylenedioxyanilino)-7-[2-(4-methylpiperazin-1-yl)ethoxy]-5-tetrahydropyran-4-yloxyquinazoline trihydrate]: the “stability of the physical form” value in series [2] is “stable in the presence of water”.
